According to patent publication US20130052190A1, “CRTH2 Antagonists for Treatment of Eosinophilic Diseases and Conditions” (Oxagen Limited, priority 2011, published 2013):

Columns and labels:
[1] = tested on: patients with mild to moderate asthma; test: 4 week study in patients with mild to moderate asthma (FEV1); format: in vivo, human; conditions: after 4 weeks, 100 mg twice daily
Method: 4 Week Study in Patients with Mild to Moderate Asthma
The study was a randomized, double blind, placebo controlled study of (5-fluoro-2-methyl-3-quinolin-2-ylmethyl-indol-1-yl)-acetic acid (OC000459) for 28 days in patients with mild to moderate asthma with a FEV1 of 60-80% of predicted and requiring only short acting inhaled β2 agonists for symptomatic control. The study compared patients taking 100 mg of OC000459 twice daily with patients taking a placebo twice daily. The study consisted of 112 patients with 53 patients taking OC000459 and 59 patients taking the placebo.
1. Males and females aged 18-55 years. 2. Asthma controlled by short-acting β2 agonists only. 3. Mild to moderate persistent asthma according to GINA4 guidelines for at least 12 months. 4. Non-smokers for at least the past 12 months with a pack history of less than 10 pack years. 5. History of asthma symptoms increasing in response to external allergens. 6. Testing positive on skin prick test to an allergen associated with the patient's allergen.
1. Receipt of prescribed or over-the-counter medication within 14 days prior to the first study day. 2. Use of inhaled or local corticosteroids in the period 28 days prior to screening.

[2] = tested on: patients with mild to moderate persistent asthma; test: 12 week study in patients with mild to moderate persistent asthma (FEV1); format: in vivo, human; conditions: for FEV1 Improvement: 12 weeks, patient population on OC000459; for improvement in FEV1 over patients given the placebo / improvement in FEV1 over baseline: after 12 weeks
Method: 12 Week Study in Patients with Mild to Moderate Persistent Asthma
The study was a randomized, double blind, placebo controlled, four arm study of three dosage levels of (5-fluoro-2-methyl-3-quinolin-2-ylmethyl-indol-1-yl)-acetic acid (OC000459) tablets in patients with asthma controlled by β2 agonists alone. The study compared patients on OC000459 at three different dose levels (25 mg once daily, 100 mg twice daily, and 200 mg once daily) with patients on placebo after dosing for 12 weeks. The study consisted of 460 patients which yielded 440 evaluable results with 110 patients per arm. There was a screening period of 1 to 2 weeks, followed by placebo run-in for 3 weeks before the treatment period. There was a placebo wash-out for two weeks following the treatment period with a follow-up 3 to 5 weeks after the treatment period.
1. Males and females aged 18-55 years. 2. Asthma controlled by short-acting β2 agonists only. 3. Mild to moderate persistent asthma according to GINA4 guidelines for at least 12 months. 4. Non-smokers for at least the past 12 months with a pack history of less than 10 pack years.
Receipt of prescribed or over-the-counter medication within 14 days prior to the first study day.
1. Morning FEV1 of 60-85% of predicted. 2. Reversibility of ≧12% after salbutamol. 3. Greater than 1 puff per day of salbutamol required.

[3] = blood eosinophil count greater than or equal to 250/μL, FIG. 6(b)
[4] = full population (112 patients), FIG. 6(a)
[5] = FEV1 60-80% of predicted and positive skin prick test at baseline, FIG. 1
[6] = FEV1 60-80% of predicted, blood eosinophil count greater than or equal to 250/μL, positive skin prick test, FIG. 2

For Cc1c(Cc2ccc3ccccc3n2)c2cc(F)ccc2n1CC(=O)O [OC000459, (5-fluoro-2-methyl-3-quinolin-2-ylmethyl-indol-1-yl)-acetic acid], the “improvement in FEV1 over baseline” value [1, 3] was 250 mL, the “improvement in FEV1 over patients given the placebo” value [1, 3] was 180 mL and the “improvement in FEV1 over patients given the placebo” value ([1]; blood eosinophil count less than 250/μL, FIG. 6(c)) was “only a small improvement”. For the same molecule, the “improvement in FEV1 over baseline” value [1, 4] was 190 mL, the “improvement in FEV1 over patients given the placebo” value [1, 4] was 100 mL and the “FEV1 Improvement” value ([2]; 60-80% FEV1 Atopic) was 130 mL. For the same molecule, the “FEV1 Improvement” value ([2]; All-Comers) was 100 mL, the “FEV1 Improvement” value ([2]; Hi-eosinophil count (>250/μL)) was 188 mL and the “improvement in FEV1 over patients given the placebo” value ([2]; ACQ score greater than or equal to 1.5 at baseline, FIG. 4) was 140 mL. The “improvement in FEV1 over patients given the placebo” value ([2]; ACQ score less than 1.5 at baseline, FIG. 5) was 30 mL, the “improvement in FEV1 over baseline” value [2, 5] was 191 mL and the “improvement in FEV1 over patients given the placebo” value [2, 5] was 130 mL. For the same molecule, the “improvement in FEV1 over baseline” value [2, 6] was 184 mL, the “improvement in FEV1 over patients given the placebo” value [2, 6] was 188 mL and the “improvement in FEV1 over patients given the placebo” value ([2]; FEV1 60-80% of predicted, blood eosinophil count less than 250/μL, positive skin prick test, FIG. 3) was 76 mL.
